Measurements taken from patent US20240174727A1, “LONG-ACTING NATRIURETIC PEPTIDES AND USES THEREOF” (Eli Lilly and Company, priority 2022, published 2024).
Values joined by “and” are separate entries in the source; they are usually repeats but may differ in a detail not shown here. Identical values can stand only once. Numbered stars: 1 amine (or outer) side, 2 acyl side, 3 side chain; on linkers, the order of the positions; unused ones are H or OH. Bridge positions count the residues as written; N and C are the ends. Square brackets hold non-standard residues; d marks the D form. * marks the point of attachment. PEG24 = NCCOCCOCCOCCOCCOCCOCCOCCOCCOCCOCCOCCOCCOCCOCCOCCOCCOCCOCCOCCOCCOCCOCCOCCOCCC(=O)O; C20 diacid = O=C(O)CCCCCCCCCCCCCCCCCCC(=O)*; γGlu = O=C(O)[C@H](CCC(=O)[*:2])N[*:1]; CH2 = C([*:1])[*:2]; βAla = NCCC(=O)O

What was measured:
[1] = Pharmacokinetics in male Sprague Dawley rats; format: in vivo; settings: rat, sc, mean, single subcutaneous administration of 200 nMol/kg, plasma; for half-life: read-out: t½ (converted)
Description: The pharmacokinetics of the exemplary analogs are evaluated following a single subcutaneous administration of […] to male Sprague Dawley rats. Blood samples are collected over 120 hours, and resulting individual plasma concentrations are used to calculate pharmacokinetic parameters. Peptide plasma (K3 EDTA) concentrations are determined using a qualified LC/MS method that measured the intact mass of the ANP polypeptide. Each peptide and an analog as an internal standard are extracted from 100% specie specified plasma using methanol with 0.1% formic acid. A Thermo Q-Exactive, High Resolution Instrument, and a Thermo Easy Spray PepMap are combined for LC/MS detection.

human NPRA = target: T1, human NPRA (Homo sapiens, UniProt P16066); assay: Human NPRA cGMP activity assay (HTRF) in HEK293 cells overexpressing NPRA; format: cell-based
T1 construct: Full-Length cDNA Cloning and Generation of Cell Lines Overexpressing Natriuretic Peptide Receptors (NPRs); expressed in transfected cells; host or cells: Jump-in T-Rex HEK293 cells, pJTI R4 CMV-TO MCS pA vector, tetracycline induction
T1 sequence (P16066 33-1061): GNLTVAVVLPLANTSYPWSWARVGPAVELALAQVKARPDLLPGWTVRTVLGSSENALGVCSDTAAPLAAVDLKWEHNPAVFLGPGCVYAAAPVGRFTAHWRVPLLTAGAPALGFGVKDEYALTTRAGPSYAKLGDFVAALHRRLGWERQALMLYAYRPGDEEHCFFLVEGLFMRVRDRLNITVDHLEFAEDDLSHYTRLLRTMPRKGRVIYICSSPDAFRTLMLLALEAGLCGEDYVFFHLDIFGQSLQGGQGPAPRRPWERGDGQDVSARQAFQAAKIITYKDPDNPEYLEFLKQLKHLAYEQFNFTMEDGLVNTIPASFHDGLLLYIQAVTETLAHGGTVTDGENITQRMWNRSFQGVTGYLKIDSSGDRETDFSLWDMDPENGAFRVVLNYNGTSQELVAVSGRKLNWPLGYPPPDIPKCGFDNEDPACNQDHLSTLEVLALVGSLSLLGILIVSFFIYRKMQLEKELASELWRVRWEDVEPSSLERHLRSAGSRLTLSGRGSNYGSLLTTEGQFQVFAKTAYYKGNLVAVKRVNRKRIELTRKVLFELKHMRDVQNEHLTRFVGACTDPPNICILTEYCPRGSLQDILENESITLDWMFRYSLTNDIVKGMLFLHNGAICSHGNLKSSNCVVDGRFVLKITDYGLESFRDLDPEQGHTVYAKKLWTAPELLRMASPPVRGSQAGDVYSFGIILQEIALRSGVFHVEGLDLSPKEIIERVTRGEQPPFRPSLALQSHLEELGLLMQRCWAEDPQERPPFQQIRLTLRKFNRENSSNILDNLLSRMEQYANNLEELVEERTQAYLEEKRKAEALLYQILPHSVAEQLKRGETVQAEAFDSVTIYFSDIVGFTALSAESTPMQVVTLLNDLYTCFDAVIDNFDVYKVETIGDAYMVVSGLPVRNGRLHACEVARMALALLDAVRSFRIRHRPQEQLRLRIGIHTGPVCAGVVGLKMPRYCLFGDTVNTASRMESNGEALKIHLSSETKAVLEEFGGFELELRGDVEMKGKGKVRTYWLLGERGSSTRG
Method in brief: (§1)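 cGMP measured by HTRF and scaled between buffer (minimum) and 100 nM amidated rat ANP (maximum). Polypeptides in 10-fold steps from 10 μM to 1 pM, 0.5% DMSO, 0.5 mM IBMX, 40 min at room temperature, on induced NPRA-overexpressing HEK293 cells.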

rat NPRA = target: T2, rat NPRA (Rattus norvegicus, UniProt P18910); assay: Rat NPRA cGMP activity assay (HTRF) in HEK293 cells overexpressing NPRA; format: cell-based; settings: assay buffer with 0.1% casein, read-out: cGMP Assay (EC50, pM) w/Casein rNPRA
T2 construct: Full-Length cDNA Cloning and Generation of Cell Lines Overexpressing Natriuretic Peptide Receptors (NPRs); expressed in transfected cells; host or cells: Jump-in T-Rex HEK293 cells, pJTI R4 CMV-TO MCS pA vector, tetracycline induction
T2 sequence (P18910 29-1057): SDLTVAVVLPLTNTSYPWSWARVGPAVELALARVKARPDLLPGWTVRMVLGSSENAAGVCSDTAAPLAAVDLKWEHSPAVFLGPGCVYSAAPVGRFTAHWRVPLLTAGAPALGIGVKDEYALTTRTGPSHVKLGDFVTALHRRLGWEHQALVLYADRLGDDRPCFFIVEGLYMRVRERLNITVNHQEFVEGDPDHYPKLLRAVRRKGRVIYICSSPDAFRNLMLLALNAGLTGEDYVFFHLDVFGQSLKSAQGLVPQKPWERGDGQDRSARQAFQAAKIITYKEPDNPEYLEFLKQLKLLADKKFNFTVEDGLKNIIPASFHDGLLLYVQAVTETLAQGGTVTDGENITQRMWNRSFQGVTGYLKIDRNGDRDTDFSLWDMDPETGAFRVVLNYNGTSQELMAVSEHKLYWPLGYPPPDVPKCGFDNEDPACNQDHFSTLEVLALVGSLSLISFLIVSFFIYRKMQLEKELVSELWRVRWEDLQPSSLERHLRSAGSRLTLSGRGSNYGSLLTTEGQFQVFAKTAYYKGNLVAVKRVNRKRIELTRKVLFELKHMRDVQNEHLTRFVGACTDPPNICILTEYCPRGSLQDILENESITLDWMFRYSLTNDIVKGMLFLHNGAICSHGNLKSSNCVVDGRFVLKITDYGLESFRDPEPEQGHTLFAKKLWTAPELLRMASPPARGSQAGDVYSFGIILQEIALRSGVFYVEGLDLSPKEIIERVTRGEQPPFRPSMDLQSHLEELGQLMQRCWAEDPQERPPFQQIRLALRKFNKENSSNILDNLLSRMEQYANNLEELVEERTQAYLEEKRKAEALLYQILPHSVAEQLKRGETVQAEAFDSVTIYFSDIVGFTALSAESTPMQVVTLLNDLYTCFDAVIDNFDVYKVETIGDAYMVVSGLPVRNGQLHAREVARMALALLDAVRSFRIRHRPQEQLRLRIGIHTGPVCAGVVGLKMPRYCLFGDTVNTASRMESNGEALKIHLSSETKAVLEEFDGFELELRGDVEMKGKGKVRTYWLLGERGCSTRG
Method in brief: as §1

human NPRA (human) = human NPRA (human) (UniProt P16066); assay: cell-based or functional assay
SAUNA Mouse Model = assay: Salty drinking water/Unilateral Nephrectomy/Aldosterone (SAUNA) mouse model of heart failure; format: in vivo, male C57BL/6N mice; settings: SAUNA mice, once daily SC 0.4 mg/kg
Text: The effect of Exemplary ANP polypeptides is investigated in the Salty drinking water/Unilateral Nephrectomy/Aldosterone (SAUNA) Mouse Model, murine model of heart failure induced by chronic aldosterone infusion. After acclimation for approximately 2 weeks, heart failure is induced in male C57BL/6N (Taconic) mice by uninephrectomy, continuous d-aldosterone infusion and 1.0% sodium chloride in drinking water for 4 weeks (Tanaka et al., 2016; Valero-Munoz, Li, Wilson, Boldbaatar, et al., 2016; Valero-Munoz, Li, Wilson, Hulsmans, et al., 2016; Yang, Kong, Shuai, Zhang, & Huang, 2020; Yoon et al., 2021). […] The pressure volume (PV) catheter is introduced into the left ventricle via apical stab with a 27G needle. Calibration of the PV catheter is performed according to the manufacturer's instructions. Data are analyzed with LabChart pro software (AD Instruments). After PV loop measurements, mice are sacrificed, and ratio of heart weight to tibia length is used for indicator of hypertrophy.

| Compound | CL/F [1] [mL/min/kg] | half-life [1] [h] | EC50 (rat NPRA) [pM] | also measured |
| --- | --- | --- | --- | --- |
| CC[C@H](C)[C@@H]1NC(=O)[C@H](CCCNC(=N)N)NC(=O)[C@H](CC(=O)O)NC(=O)[C@H]([C@@H](C)CC)NC(=O)[C@H](CCCNC(=N)N)NC(=O)CNC(=O)CNC(=O)[C@H](Cc2ccccc2)NC(=O)[C@@H](NC(=O)[C@H](CO)NC(=O)[C@H](CO)NC(=O)[C@H](CCCNC(=N)N)NC(=O)[C@H](CCCNC(=N)N)NC(=O)[C@H](Cc2ccncc2)NC(=O)[C@H](CO)NC(=O)CNC(=O)[C@H](CCCCN)NC(=O)[C@H](CCC(=O)O)NC(=O)[C@H](CCCCN)NC(=O)[C@H](CCC(=O)O)NC(=O)[C@H](CCCCN)NC(=O)[C@H](CCC(=O)O)NC(=O)CC[C@H](NC(=O)CCCCCCCCCCCCCCCCCCC(=O)O)C(=O)O)CSSC[C@@H](C(=O)N2CCC[C@H]2C(=O)N[C@@H](CO)C(=O)N[C@@H](Cc2ccccc2)C(=O)N[C@@H](CCCNC(=N)N)C(=O)N[C@@H](Cc2c[nH]cn2)C(=O)NCC(=O)NCC(=O)N2CCC[C@H]2C(=O)N[C@@H](CO)C(=O)N[C@@H](CO)C(=O)NCC(=O)N[C@@H](C)C(=O)N2CCC[C@H]2C(=O)N2CCC[C@H]2C(=O)N2CCC[C@H]2C(=O)N[C@@H](CO)C(N)=O)NC(=O)CNC(=O)[C@H](CC(C)C)NC(=O)CNC(=O)[C@H](CO)NC(=O)[C@H](CCC(N)=O)NC(=O)[C@H](Cc2c[nH]cn2)NC(=O)CNC1=O [Example 1] | 0.343 | 11 |  | EC50 (human NPRA; cGMP Assay (EC50, pM) w/BSA hNPRA, assay buffer with 0.1% BSA): 11600 pM |
| {C20 diacid-γGlu}-EKEKEKG[PEG24]EK[βAla]RSSCFGGKIDRIGHYSGLGCPSFRHGSPSSGAPPPS-NH2 (linker 15-31 via CH2) [Example 6] | 0.108 | 17 |  | EC50 (human NPRA; cGMP Assay (EC50, pM) w/Casein hNPRA, assay buffer with 0.1% casein): 1530 pM |
| CC[C@H](C)[C@@H]1NC(=O)[C@H](CCCNC(=N)N)NC(=O)[C@H](CC(=O)O)NC(=O)[C@H]([C@@H](C)CC)NC(=O)[C@H](CCCNC(=N)N)NC(=O)[C@H](CCCCN)NC(=O)CNC(=O)[C@H](Cc2ccccc2)NC(=O)[C@@H](NC(=O)[C@H](CO)NC(=O)[C@H](CO)NC(=O)[C@H](CCCNC(=N)N)NC(=O)CCNC(=O)[C@H](CCCCN)NC(=O)[C@H](CCC(=O)O)NC(=O)CCOCCOCCOCCOCCOCCOCCOCCOCCOCCOCCOCCOCCOCCOCCOCCOCCOCCOCCOCCOCCOCCOCCOCCOCCNC(=O)CNC(=O)[C@H](CCCCN)NC(=O)[C@H](CCC(=O)O)NC(=O)[C@H](CCCCN)NC(=O)[C@H](CCC(=O)O)NC(=O)[C@H](CCCCN)NC(=O)[C@H](CCC(=O)O)NC(=O)CC[C@H](NC(=O)CCCCCCCCCCCCCCCCCCC(=O)O)C(=O)O)CSCSC[C@@H](C(=O)N2CCC[C@H]2C(=O)N[C@@H](CO)C(=O)N[C@@H](Cc2ccccc2)C(=O)N[C@@H](CCCNC(=N)N)C(=O)N[C@@H](Cc2c[nH]cn2)C(=O)NCC(=O)N[C@@H](CO)C(=O)N2CCC[C@H]2C(=O)N[C@@H](CO)C(=O)N[C@@H](CO)C(=O)NCC(=O)N[C@@H](C)C(=O)N2CCC[C@H]2C(=O)N2CCC[C@H]2C(=O)N2CCC[C@H]2C(=O)N[C@@H](CO)C(N)=O)NC(=O)CNC(=O)[C@H](CC(C)C)NC(=O)CNC(=O)[C@H](CO)NC(=O)[C@H](CCC(N)=O)NC(=O)[C@H](Cc2c[nH]cn2)NC(=O)CNC1=O [Example 4] | 0.0717 | 15 | 22500 |  |
| HOOC-(CH2)18-CO-(γGlu)-EKEKEKG-PEG24-EK-βAla-RSS[…]PSFRHGGP-NH2 (peptide) |  |  |  | cGMP Assay (EC50, pM) w/BSA, hNPRA (human NPRA (human)): 2960 pM and 1270 pM; cGMP Assay (EC50, pM) w/Casein, hNPRA (human NPRA (human)): 1010 pM and 669 pM |
| CC[C@H](C)[C@@H]1NC(=O)[C@H](CCCNC(=N)N)NC(=O)[C@H](CC(=O)O)NC(=O)[C@H]([C@@H](C)CC)NC(=O)[C@H](CCCNC(=N)N)NC(=O)CNC(=O)CNC(=O)[C@H](Cc2ccccc2)NC(=O)[C@@H](NC(=O)[C@H](CO)NC(=O)[C@H](CO)NC(=O)[C@H](CCCNC(=N)N)NC(=O)[C@H](CCCNC(=N)N)NC(=O)[C@H](CC(C)C)NC(=O)[C@H](CO)NC(=O)CNC(=O)[C@H](CCCCN)NC(=O)[C@H](CCC(=O)O)NC(=O)[C@H](CCCCN)NC(=O)[C@H](CCC(=O)O)NC(=O)[C@H](CCCCN)NC(=O)[C@H](CCC(=O)O)NC(=O)CC[C@H](NC(=O)CCCCCCCCCCCCCCCCCCC(=O)O)C(=O)O)CSSC[C@@H](C(=O)N[C@@H](CC(N)=O)C(=O)N[C@@H](CO)C(=O)N[C@@H](Cc2ccccc2)C(=O)N[C@@H](CCCNC(=N)N)C(=O)N[C@@H](Cc2ccc(O)cc2)C(N)=O)NC(=O)CNC(=O)[C@H](CC(C)C)NC(=O)CNC(=O)[C@H](CO)NC(=O)[C@H](CCC(N)=O)NC(=O)[C@H](C)NC(=O)CNC1=O [Example 8] | 0.698 | 15 | 493 | blood pressure (SAUNA Mouse Model): decrease in blood pressure; left ventricle diastolic pressure (SAUNA Mouse Model; PV catheter): reduced left ventricle diastolic pressure; heart weight and tibia length (SAUNA Mouse Model; indicator of hypertrophy): decrease |
